In ChEMBL document CHEMBL1201862, “PubChem BioAssay data set” (2004):
The source made the active and inactive calls.

How the values were obtained:
[1] = Dd2 parasite growth inhibition in erythrocytes – SYBR Green, dry powder samples, set 9, dose response (AID 1159568); type: functional, cell-based
[2] = target: T1, Corticotropin-releasing factor receptor 2/Corticotropin-releasing factor-binding protein (Homo sapiens, UniProt P24387+Q13324); assay: Dose Response confirmation of uHTS hits for small molecule antagonists of the CRF-binding protein and CRF-R2 receptor complex.; type: functional; settings: read-out: IC50_Mean
T1 sequence (Q13324 whole entry): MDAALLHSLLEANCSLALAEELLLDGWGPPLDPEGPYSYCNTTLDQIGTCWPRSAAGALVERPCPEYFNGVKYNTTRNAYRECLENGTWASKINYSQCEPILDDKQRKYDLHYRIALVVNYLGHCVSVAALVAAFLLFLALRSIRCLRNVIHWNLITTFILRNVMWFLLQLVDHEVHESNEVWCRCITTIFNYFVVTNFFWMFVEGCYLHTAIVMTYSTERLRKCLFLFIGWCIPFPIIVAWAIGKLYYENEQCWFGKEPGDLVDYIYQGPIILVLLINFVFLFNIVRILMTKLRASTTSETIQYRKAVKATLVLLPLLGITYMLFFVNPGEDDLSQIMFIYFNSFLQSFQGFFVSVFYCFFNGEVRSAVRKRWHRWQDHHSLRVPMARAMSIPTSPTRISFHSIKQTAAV
T1 sequence (P24387 whole entry): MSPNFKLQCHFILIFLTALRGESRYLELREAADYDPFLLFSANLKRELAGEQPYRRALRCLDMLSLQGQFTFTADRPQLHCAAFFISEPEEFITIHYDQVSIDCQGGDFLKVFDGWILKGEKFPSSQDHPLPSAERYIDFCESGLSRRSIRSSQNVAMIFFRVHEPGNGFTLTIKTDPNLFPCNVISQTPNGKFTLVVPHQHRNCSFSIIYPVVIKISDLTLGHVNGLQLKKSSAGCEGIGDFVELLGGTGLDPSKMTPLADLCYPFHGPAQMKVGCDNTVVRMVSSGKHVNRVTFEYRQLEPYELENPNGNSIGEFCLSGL

[3] = viability loss of HPDE-C7K cells – cell-based, fluorescence, HTS, primary screen (AID 431); type: functional; settings: Homo sapiens
[4] = HPDE-C7 pancreatic duct cell viability loss – fluorescence, HTS (AID 430); type: functional, cell-based; settings: Homo sapiens
[5] = target: T1, Corticotropin-releasing factor receptor 2/Corticotropin-releasing factor-binding protein; assay: activators of CRF receptor 2 with binding protein – uHTS hits, confirmation (AID 602473); type: functional; settings: read-out: EC50_Mean
HEK293 [6] = assay: inhibition of NOD1-driven NF-kB reporter – cell-based, luminescence, uHTS, primary screen (AID 1578); type: functional; settings: Homo sapiens
[7] = target: COUP transcription factor 2 (Homo sapiens, UniProt P24468); assay: Luminescence-based cell-based high throughput dose response assay to identify inhibitors of COUP-TFII (NR2F2).; type: functional;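 note: HEK293 cells transiently cotransfected with COUP-TFII expression vector and reporter; luciferase reporter luminescence driven by COUP-TFII from the pX2-168 reporter plasmid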
HEK293 [8] = assay: cells; type: functional, cell-based; settings: Homo sapiens
HEK293 [9] = assay: cells; type: functional, cell-based; settings: Homo sapiens; remark: listed apart in the source
[10] = target: Nucleotide-binding oligomerization domain-containing protein 2 (Homo sapiens, UniProt Q9HC29); assay: inhibition of NOD2-driven NF-kB reporter – cell-based, luminescence, uHTS, HEK293 (AID 1566); type: functional
[11] = Luminescence Cell-Based Dose Retest to Confirm Inhibitors of Cancer Stem Cells. [Related pubchem assays (depositor defined):AID2717, AID2721]; type: functional; settings: Homo sapiens
HEK293 [12] = assay: NOD2 signaling inhibitors in MDP-stimulated cells, cell-based, uHTS, luminescence (AID 2001); type: functional; settings: Homo sapiens
[13] = target: Luciferin 4-monooxygenase (Photinus pyralis, UniProt P08659); assay: Counter Screen for Luciferase-based Assay Positives. [Related pubchem assays: 620, 618, 411 ]
HT-1080 = assay: HT1080 cell viability loss – fluorescence readout (AID 620); type: functional, cell-based; settings: Homo sapiens
HEK293 [14] = assay: cells; type: functional, cell-based; settings: Homo sapiens; remark: listed apart in the source
[15] = target: T2, Mannose-6-phosphate isomerase (Homo sapiens, UniProt P34949); assay: MPI inhibition at elevated mannose 6-phosphate – biochemical, fluorescence intensity, high mannose 6-phosphate, primary screen (AID 1220)
T2 sequence (P34949 whole entry): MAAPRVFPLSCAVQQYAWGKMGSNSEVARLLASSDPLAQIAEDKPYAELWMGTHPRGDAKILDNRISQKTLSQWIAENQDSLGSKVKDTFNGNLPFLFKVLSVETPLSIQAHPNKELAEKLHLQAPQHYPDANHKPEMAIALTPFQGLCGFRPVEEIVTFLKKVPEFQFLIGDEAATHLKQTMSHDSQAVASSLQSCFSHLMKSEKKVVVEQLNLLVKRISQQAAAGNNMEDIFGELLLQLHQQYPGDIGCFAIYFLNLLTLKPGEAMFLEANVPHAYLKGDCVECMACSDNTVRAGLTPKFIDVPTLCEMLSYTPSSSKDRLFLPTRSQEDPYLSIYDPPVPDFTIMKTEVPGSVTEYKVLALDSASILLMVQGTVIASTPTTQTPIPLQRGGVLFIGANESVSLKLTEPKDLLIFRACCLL

Protein Tat = Protein Tat (Human immunodeficiency virus type 1 group M subtype B (isolate HXB2)(HIV-1), UniProt P04608); type: functional;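 note: tat binding to TAR RNA read out by fluorescence polarization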
SUMO-activating enzyme = SUMO-activating enzyme (Homo sapiens, UniProt Q9UBT2); assay: blockers of UBC9-mediated SUMO conjugation – biochemical, AlphaScreen, SUMOylation inhibitor project, confirmation (AID 2018); type: functional
[16] = target: DNA damage-inducible transcript 3 protein (Mus musculus, UniProt P35639); type: functional, Cricetulus griseus
[17] = target: T2, Mannose-6-phosphate isomerase; assay: MPI enzyme activity inhibition – biochemical, fluorescence intensity, coupled assay, primary screen (AID 1209)
[18] = target: NAD-dependent protein deacylase sirtuin-5, mitochondrial (Homo sapiens, UniProt Q9NXA8); assay: sirtuin-5 deacylation blockers, concentration series – biochemical, fluorescence imaging, cherry-pick, set 5, dose response (AID 720591);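 note: desuccinylation of succinyl peptide AMC substrate read as fluorescence after trypsin release; potency of inhibitors that lower fluorescence and may act on trypsin instead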
[19] = target: T3, Aryl hydrocarbon receptor (Homo sapiens, UniProt P35869); assay: Luminescence-based cell-based high throughput dose response assay for activators of the Aryl Hydrocarbon Receptor (AHR). [Related pubchem assays: 2796 (Primary screen (AHR activators in singlicate)), 2845 (Confirmation screen (AHR activators in triplicate)), 434939 (Counterscreen (PXR activators in triplicate)), 2804 (Summary (AHR activators))]; type: ADME
T3 sequence (P35869 whole entry): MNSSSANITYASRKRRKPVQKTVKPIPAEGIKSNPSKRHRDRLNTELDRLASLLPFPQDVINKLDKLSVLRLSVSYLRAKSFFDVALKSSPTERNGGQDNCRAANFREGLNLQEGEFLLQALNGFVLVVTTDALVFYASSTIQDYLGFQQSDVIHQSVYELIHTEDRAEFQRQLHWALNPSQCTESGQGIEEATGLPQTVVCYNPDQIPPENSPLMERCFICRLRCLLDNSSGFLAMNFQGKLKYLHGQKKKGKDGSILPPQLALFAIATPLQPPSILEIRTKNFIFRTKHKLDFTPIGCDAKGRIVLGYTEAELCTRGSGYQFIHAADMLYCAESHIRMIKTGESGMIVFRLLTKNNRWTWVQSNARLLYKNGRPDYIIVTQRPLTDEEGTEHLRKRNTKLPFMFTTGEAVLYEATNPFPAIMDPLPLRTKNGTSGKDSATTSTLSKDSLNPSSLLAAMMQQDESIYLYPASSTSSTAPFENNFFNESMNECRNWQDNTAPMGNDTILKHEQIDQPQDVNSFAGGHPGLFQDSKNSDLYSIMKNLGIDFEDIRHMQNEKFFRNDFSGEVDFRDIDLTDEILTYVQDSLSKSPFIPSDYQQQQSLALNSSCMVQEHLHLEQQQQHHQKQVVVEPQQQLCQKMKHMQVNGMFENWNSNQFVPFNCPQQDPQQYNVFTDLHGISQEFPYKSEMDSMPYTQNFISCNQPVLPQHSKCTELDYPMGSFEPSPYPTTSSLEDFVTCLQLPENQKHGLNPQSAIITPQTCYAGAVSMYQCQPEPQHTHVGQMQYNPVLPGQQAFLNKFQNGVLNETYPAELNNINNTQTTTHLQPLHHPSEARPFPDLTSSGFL

[20] = target: T4, Tyrosine-protein phosphatase non-receptor type 7 (Homo sapiens, UniProt P35236); assay: HePTP tyrosine phosphatase activity blockers – biochemical, absorbance, leukemia target, primary screen (AID 521); type: functional
T4 sequence (P35236 whole entry): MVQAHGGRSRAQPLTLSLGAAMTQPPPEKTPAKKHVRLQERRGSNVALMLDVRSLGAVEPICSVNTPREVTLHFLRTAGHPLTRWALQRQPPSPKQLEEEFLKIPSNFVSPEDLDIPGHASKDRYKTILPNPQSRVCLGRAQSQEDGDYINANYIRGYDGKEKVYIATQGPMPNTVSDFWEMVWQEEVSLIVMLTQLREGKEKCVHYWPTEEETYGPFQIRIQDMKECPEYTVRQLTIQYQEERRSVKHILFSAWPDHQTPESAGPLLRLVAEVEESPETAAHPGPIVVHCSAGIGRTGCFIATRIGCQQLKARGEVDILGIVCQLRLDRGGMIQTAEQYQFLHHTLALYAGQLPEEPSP

Paired box protein Pax-8 = Paired box protein Pax-8 (Homo sapiens, UniProt Q06710); assay: PAX8 transcriptional activity inhibition in RMG-I – RMG-I cells, luciferase, cherry-pick, dose response (AID 687027); type: functional, cell-based;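 note: luciferase reporter driven by Pax8 target thyroperoxidase promoter measured by SteadyGlo luminescence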
[21] = general mammalian cell viability loss – inhibitor set, cherry-pick, set 2, cytotoxicity control for miR-122 modulator project, dose response (AID 720697); type: functional, cell-based
Vero = assay: cells; type: functional; settings: Chlorocebus sabaeus
[22] = activation of miR-122 Renilla sensor silencing – cell-based, Huh7 psiCHECK-miR122, Renilla luciferase, cherry-picked, dose response (AID 651956); type: functional;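 note: huh7 hepatoma cells stably carrying a psiCHECK-2 miR-122 sensor plasmid; renilla luciferase signal reporting endogenous miR-122 activity after 48 h compound exposure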
[23] = general cell-killing toxicity readout – plate reader, dry powder samples, cytotoxicity control for PAX8 inhibitor project, dose response (AID 743021); type: functional, cell-based
Troponin, cardiac muscle = Troponin, cardiac muscle (Homo sapiens, UniProt P19429+P45379+P63316); assay: Fluorescence-based biochemical high throughput dose response assay for activators of the calcium sensitivity of cardiac Regulated Thin Filaments (RTF). [Related pubchem assays (depositor defined):AID493008, AID493018, AID504382, AID504383]; type: protein-complex assay
[24] = reduced cellular PGC1a acetyl-lysine signal – cell-based, cherry-picked samples, dose response (AID 720514); type: functional;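 note: potency may reflect raised or lowered acetylation signal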
[25] = general mammalian cell viability loss – activator set, cherry-pick, cytotoxicity control for miR-122 modulator project, dose response (AID 720690); type: functional, cell-based;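 note: HEK293T human cells scored for general mammalian cytotoxicity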
[26] = target: Disintegrin and metalloproteinase domain-containing protein 17 (Homo sapiens, UniProt P78536); assay: inhibition of ADAM17 substrate cleavage – biochemical, quenched FRET substrate, counter-screen for ADAM10 exosite inhibitor project, dose response (AID 743253)
[27] = potency of ADAM10 substrate cleavage blockers – biochemical, QFRET, dose response (AID 743254);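 note: ADAM10 enzyme with the DM2 quenched FRET peptide as substrate; EDANS fluorescence gain as the protease cuts the substrate; inhibitor potency against ADAM10 proteolytic activity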
[28] = NIH-3T3 fibroblast cytotoxicity, dose response, cytotoxicity control, cell-based, fluorescence, Alamar Blue, secondary assay (AID 2327); type: functional;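 note: NIH-3T3 mouse fibroblasts cultured with fluconazole at 8 µg/mL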
[29] = fluconazole-exposed Candida albicans growth modulators – fluorescence, retest, confirmation (AID 2467); type: functional, cell-based

## COc1ccc2c3c([nH]c2c1)[C@H](CO)N(C(C)=O)CC31CN(Cc2ccccc2Cl)C1
[1]
  AC50: 3 µM (active)

## C=C(C)COc1ccc(-c2n[nH]cc2Oc2ccccc2OC)c(O)c1
[2]
  IC50: 1.91 µM (active)
[3]
  EC50: 9.78 µM (active)
[4]
  EC50: 12.3 µM (active)
[5]
  EC50: > 53 µM (inactive)

## CC(=O)Nc1ccc(SCC(=O)c2cc(C)n(Cc3cccs3)c2C)cc1
HEK293 [6]
  EC50: > 20 µM (inactive)
[7]
  IC50: 23.6 µM (inactive)
HEK293 [8]
  IC50: > 20 µM (inactive)
HEK293 [9]
  IC50: > 20 µM (inactive)
[10]
  EC50: > 20 µM (inactive)
[11]
  AC50: 1.77 µM (active)
HEK293 [12]
  IC50: > 20 µM (inactive)
[13]
  EC50: 3.59 µM (active)
HT-1080
  EC50: > 50 µM (not active)
HEK293 [14]
  IC50: > 20 µM (inactive)

## CC1=Nc2nc3c(c4c(C#N)c(N5CCCCC5)nc(c24)N1)CC(=O)N3c1ccc(C(C)C)cc1.CN(C)C=O
[15]
  IC50: > 50 µM (not active)
Protein Tat
  IC50: > 100 µM (active)
SUMO-activating enzyme
  IC50: 11.7 µM (active)
[16]
  Absolute IC50 (CHOP): 10 µM
[17]
  IC50: > 50 µM (not active)

## CCCCC[C@@H](C)N1C[C@H](COCc2ccccc2)Oc2cc(N3CCC[C@@H]3CO)ccc2S1(=O)=O
[18]
  AC50: > 30 µM (inactive)

## COc1ccc(C(=O)Nc2cc(OC)c(NC(=O)c3ccco3)cc2OC)cc1
[19]
  EC50: 1.76 µM (active)

## Cc1ccc(S(=O)(=O)N2CC[C@H]3[C@H](CO)Nc4ccc(-c5cccc(C(=O)N(C)C)c5)cc4[C@H]32)cc1
[1]
  AC50: 3.07 µM (active)

## COn1cnnc1-c1ccccc1
[20]
  IC50: > 100 µM (not active)

## Cn1ncc2c(ON=C(N)c3ccc(C(F)(F)F)cc3)ncnc21
Paired box protein Pax-8
  AC50: 6.71 µM (active)
[21]
  AC50: 9.49 µM (active)
Vero
  CC50: 8.98 µM (active)
[22]
  AC50: 20.8 µM (active)
[23]
  AC50: 66.7 µM (active)
Troponin, cardiac muscle
  EC50: > 71.5 µM (inactive)
[24]
  AC50: 4.71 µM (active)
[25]
  AC50: 14 µM (active)

## CC(=O)c1ccc(Nc2cc(C)nc3ccc(C)cc23)cc1
[24]
  AC50: 6.09 µM (active)

## Oc1ccc(C[C@H]2CNC(=S)N2CC2CCCN2C[C@H](Cc2ccccc2)N2C[C@H](Cc3ccc(O)cc3)N(CC3CCCCC3)C2=S)cc1 (stereo partly specified)
[26]
  IC50: > 69.5 µM (inactive)
[27]
  IC50: 7.86 µM (active)

## Cc1ccc(S(=O)(=O)c2c(C)nn(C(C)(C)C)c2OC(=O)c2ccc(Br)o2)cc1
[11]
  AC50: 1.67 µM (active)
[28]
  EC50: > 160 µM (inconclusive)
[29]
  EC50: 0.805 µM (active)
[3]
  EC50: 4.56 µM (active)
[4]
  EC50: 4.41 µM (active)

## COc1ccc(C(=O)C2CCN(c3ncnc4sccc34)CC2)cc1
[7]
  IC50: 1.77 µM (active)
